Ki, MIC and melting point data for eleven molecules are collected here from US7192974B2, “Hydroxymethyl substituted dihydroisoxazole derivatives useful as antibiotic agents” (AstraZeneca AB, priority 2003, dated 2007).

pKi: −log10 of the molar value. Converted amounts (≈) assume the structure as drawn. Read-outs that look alike come from different tables or passages of the source.

For one series, the target named is T1, MAO-A (Homo sapiens, UniProt P21397).
T1 construct: made in house; host or cells: yeast
T1 sequence (P21397 1-527): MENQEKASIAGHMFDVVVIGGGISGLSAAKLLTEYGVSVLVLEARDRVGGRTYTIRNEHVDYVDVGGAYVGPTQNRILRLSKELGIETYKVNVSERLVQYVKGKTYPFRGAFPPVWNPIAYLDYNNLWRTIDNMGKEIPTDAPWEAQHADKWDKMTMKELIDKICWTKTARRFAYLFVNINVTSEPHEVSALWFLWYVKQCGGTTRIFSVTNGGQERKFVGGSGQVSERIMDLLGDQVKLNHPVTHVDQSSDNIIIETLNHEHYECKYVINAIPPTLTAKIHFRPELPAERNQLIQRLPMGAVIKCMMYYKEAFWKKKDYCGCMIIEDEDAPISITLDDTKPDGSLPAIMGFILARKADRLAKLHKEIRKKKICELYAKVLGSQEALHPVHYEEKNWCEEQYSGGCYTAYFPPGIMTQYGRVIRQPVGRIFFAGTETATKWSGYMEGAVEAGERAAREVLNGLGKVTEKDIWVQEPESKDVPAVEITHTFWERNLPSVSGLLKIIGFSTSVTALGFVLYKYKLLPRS
Put plainly: MAO-A in-vitro assay, human liver enzyme expressed in yeast. Type of series: biochemical. As to the method:
The activity of the compounds of the invention against MAO-A was tested using a standard in-vitro assay based on human liver enzyme expressed in yeast as described in Biochem. Biophys. Res. Commun. 1991, 181, 1084–1088.

For a further series, the system named is Moraxella catarrhalis. Put plainly: MIC, fastidious Gram negative organisms in Mueller-Hinton broth. Type of series: cell-based. As to conditions: Mueller-Hinton broth with hemin and NAD, 24 hours, 5×10^4 CFU/well. The method, then: (§1) The following results were obtained on a standard in-vitro test system. The activity is described in terms of the minimum inhibitory concentration (MIC) determined by the agar-dilution technique with an inoculum size of 10^4 CFU/spot. Typically, compounds are active in the range 0.01 to 256 μg/ml. Streptococci and enterococci were tested on agar supplemented with 5% defibrinated horse blood, an inoculum of 10^4 CPU/spot and an incubation temperature of 37° C. in an atmosphere of 5% carbon dioxide for 48 hours—blood is required for the growth of some of the test organisms. Fastidious Gram negative organisms were tested in Mueller-Hinton broth, supplemented with hemin and NAD, grown aerobically for 24 hours at 37° C., and with an innoculum of 5×10^4 CFU/well.

A further series relates to Haemophilus influenzae. Described as above. The class given is cell-based. As to conditions: Mueller-Hinton broth with hemin and NAD, 24 hours, 5×10^4 CFU/well. The method, then:
as §1

A further series deals with Streptococcus pneumoniae. Put plainly: MIC, Streptococci on agar with 5% defibrinated horse blood. Type of series: cell-based. As to conditions: 5% carbon dioxide, 48 hours. The method, then: as §1
In series [1] the test system is Staphylococcus aureus MSQS. The series is described as follows: MIC by agar-dilution, Staphylococci on agar. The class given is cell-based. As to conditions: MSQS = methicillin sensitive and quinolone sensitive, inoculum 10^4 CFU/spot, 37° C., 24 hours. As to the method: (§2) The following results were obtained on a standard in-vitro test system. The activity is described in terms of the minimum inhibitory concentration (MIC) determined by the agar-dilution technique with an inoculum size of 10^4 CFU/spot. Typically, compounds are active in the range 0.01 to 256 μg/ml.
(§3) Staphylococci were tested on agar, using an inoculum of 10^4 CFU/spot and an incubation temperature of 37° C. for 24 hours—standard test conditions for the expression of methicillin resistance.

Series [2] concerns Staphylococcus aureus MRQR. The series is described as follows: MIC by agar-dilution, Staphylococci on agar. As to conditions: MRQR = methicillin resistant and quinolone resistant, inoculum 10^4 CFU/spot, 37° C., 24 hours. Type of series: cell-based. The method, then: as §2, §3

Take `O=C1O[C@@H](Cn2ccnn2)CN1c1ccc(-c2ccc(C3=NO[C@H](CO)C3)nc2)c(F)c1` [Example 1, (5R)-3-(3-Fluoro-4-{6-[(5S)-5-(hydroxymethyl)-4,5-dihydroisoxazol-3-yl]pyridin-3-yl}phenyl)-5-(1H-1,2,3-triazol-1-ylmethyl)-1,3-oxazolidin-2-one]: the pKi (as a rule, the negative decadic logarithm of the Ki, by convention in mol/L) at MAO-A (human liver enzyme expressed in yeast, read-out: Ki value (MAO-A)) is 4.70. In addition, the MIC was determined as 0.5 µg/mL (≈ 1.14 µM) in the series with Moraxella catarrhalis; 4 µg/mL (≈ 9.12 µM) against Haemophilus influenzae; 0.02 µg/mL (≈ 0.0456 µM) in the series on Streptococcus pneumoniae; 0.25 µg/mL (≈ 0.57 µM) in series [1]; 0.5 µg/mL (≈ 1.14 µM) in series [2].
`O=C1O[C@@H](Cn2ccnn2)CN1c1ccc(-c2ccc(C3=NO[C@@H](CO)C3)nc2)c(F)c1` [Example 2, (5R)-3-(3-Fluoro-4-{6-[(5R)-5-(hydroxymethyl)-4,5-dihydroisoxazol-3-yl]pyridin-3-yl}phenyl)-5-(1H-1,2,3-triazol-1-ylmethyl)-1,3-oxazolidin-2-one]: on MAO-A (read-out: MAO-A Ki), the pKi is 6.15.
With `CC(=O)NC[C@H]1CN(c2ccc(-c3ccc(C4=NO[C@H](CO)C4)nc3)c(F)c2)C(=O)O1` [Example 3, N-{[(5S)-3-(3-Fluoro-4-{6-[(5S)-5-(hydroxymethyl)-4,5-dihydroisoxazol-3-yl]pyridin-3-yl}phenyl)-2-oxo-1,3-oxazolidin-5-yl]methyl}acetamide], the pKi on MAO-A (read-out: MAO-A Ki) is 5.05.
Same read-out and setting: for `CC(=O)NC[C@H]1CN(c2ccc(-c3ccc(C4=NO[C@@H](CO)C4)nc3)c(F)c2)C(=O)O1` [Example 4, N-{[(5S)-3-(3-Fluoro-4-{6-[(5R)-5-(hydroxymethyl)-4,5-dihydroisoxazol-3-yl]pyridin-3-yl}phenyl)-2-oxo-1,3-oxazolidin-5-yl]methyl}acetamide] the value was 5.52.
As for `COCCCOC(=O)OC[C@@H]1CC(c2ccc(-c3ccc(N4C[C@H](Cn5ccnn5)OC4=O)cc3F)cn2)=NO1` [Example 29, (5S)-3-(5-{2-fluoro-4-[(5R)-2-oxo-5-(1H-1,2,3-triazol-1-ylmethyl)-1,3-oxazolidin-3-yl]phenyl}pyridin-2-yl)-4,5-dihydroisoxazol-5-yl]methyl 3-methoxypropyl carbonate], the melting point – broadly, the temperature, or range, at which the solid turns liquid – is 142 °C.
The molecule `O=C(OC[C@@H]1CC(c2ccc(-c3ccc(N4C[C@H](Cn5ccnn5)OC4=O)cc3F)cn2)=NO1)c1cnccn1` [Example 30, [(5S)-3-(5-{2-fluoro-4-[(5R)-2-oxo-5-(1H-1,2,3-triazol-1-ylmethyl)-1,3-oxazolidin-3-yl]phenyl}pyridin-2-yl)-4,5-dihydroisoxazol-5-yl]methylpyrazine-2-carboxylate] came in with a melting point of 205 to 226 °C.
In turn, `O=C(OC[C@@H]1CC(c2ccc(-c3ccc(N4C[C@H](Cn5ccnn5)OC4=O)cc3F)cn2)=NO1)c1cncnc1` [Example 31] displayed a melting point of 253 to 264 °C.
The same measure, in the same setting: for `COC(=O)N(C)CCCCC(=O)OC[C@@H]1CC(c2ccc(-c3ccc(N4C[C@H](Cn5ccnn5)OC4=O)cc3F)cn2)=NO1` [Example 33, [(5S)-3-(5-{2-fluoro-4-[(5R)-2-oxo-5-(1H-1,2,3-triazol-1-ylmethyl)-1,3-oxazolidin-3-yl]phenyl}pyridin-2-yl)-4,5-dihydroisoxazol-5-yl]methyl 5-[(methoxycarbonyl)(methyl)amino]pentanoate] the value was 82 °C; for `CN(CCCCC(=O)OC[C@@H]1CC(c2ccc(-c3ccc(N4C[C@H](Cn5ccnn5)OC4=O)cc3F)cn2)=NO1)C(=O)OC(C)(C)C` [Example 34, [(5S)-3-(5-{2-fluoro-4-[(5R)-2-oxo-5-(1H-1,2,3-triazol-1-ylmethyl)-1,3-oxazolidin-3-yl]phenyl}pyridin-2-yl)-4,5-dihydroisoxazol-5-yl]methyl 5-[(tert-butoxycarbonyl)(methyl)amino]pentanoate], 121 °C; for `COC(=O)N(C)CCCC(=O)OC[C@@H]1CC(c2ccc(-c3ccc(N4C[C@H](Cn5ccnn5)OC4=O)cc3F)cn2)=NO1` [Example 35, [(5S)-3-(5-{2-fluoro-4-[(5R)-2-oxo-5-(1H-1,2,3-triazol-1-ylmethyl)-1,3-oxazolidin-3-yl]phenyl}pyridin-2-yl)-4,5-dihydroisoxazol-5-yl]methyl 4-[(methoxycarbonyl)(methyl)amino]butanoate], 135 °C.
In turn, `COC(=O)N(C)CCCCCC(=O)OC[C@@H]1CC(c2ccc(-c3ccc(N4C[C@H](Cn5ccnn5)OC4=O)cc3F)cn2)=NO1` [Example 36, [(5S)-3-(5-{2-fluoro-4-[(5R)-2-oxo-5-(1H-1,2,3-triazol-1-ylmethyl)-1,3-oxazolidin-3-yl]phenyl}pyridin-2-yl)-4,5-dihydroisoxazol-5-yl]methyl 6-[(methoxycarbonyl)(methyl)amino]hexanoate] registered a melting point of 103 °C.
